Measured values from ChEMBL document CHEMBL1157046, “QSAR modeling of taxane analogues against colon cancer” (Eur J Med Chem, 2010).

Assays:
[1] = test system: HCT-116; test: Cytotoxicity against human HCT116 cells after 72 hrs; format: functional, cell-based; settings: HCT-116, 72 h
[2] = test system: HT-29; test: Cytotoxicity against human HT-29 cells; format: functional, cell-based

Row | SMILES | IC50 [1] [nM] | IC50 [2] [nM]
1 | CC(=O)O[C@H]1C(=O)[C@@]2(C)[C@H]([C@H](OC(=O)c3ccccc3)[C@]3(O)C[C@H](OC(=O)[C@H](O)[C@@H](NC(=O)c4ccccc4)c4ccccc4)C(C)=C1C3(C)C)[C@]1(OC(=O)c3ccccc3)CO[C@@H]1C[C@@H]2O | 407 | 
2 | CC(=O)O[C@H]1C(=O)[C@@]2(C)[C@H]([C@H](OC(=O)c3ccccc3)[C@]3(O)C[C@H](OC(=O)[C@H](O)[C@@H](NC(=O)c4ccccc4)c4ccccc4)C(C)=C1C3(C)C)[C@]1(OC(=O)c3ccc(F)cc3)CO[C@@H]1C[C@@H]2O | 794 | 
3 | CC(=O)O[C@H]1C(=O)[C@@]2(C)[C@H]([C@H](OC(=O)c3ccccc3)[C@]3(O)C[C@H](OC(=O)[C@H](O)[C@@H](NC(=O)c4ccccc4)c4ccccc4)C(C)=C1C3(C)C)[C@]1(OC(=O)CF)CO[C@@H]1C[C@@H]2O | 7.08 | 
4 | CC(=O)O[C@H]1C(=O)[C@@]2(C)[C@H]([C@H](OC(=O)c3ccccc3)[C@]3(O)C[C@H](OC(=O)[C@H](O)[C@@H](NC(=O)c4ccccc4)c4ccccc4)C(C)=C1C3(C)C)[C@]1(OC(=O)C(Cl)(Cl)Cl)CO[C@@H]1C[C@@H]2O | 3.98 | 
5 | CCC(=O)O[C@@]12CO[C@@H]1C[C@H](O)[C@@]1(C)C(=O)[C@H](OC(C)=O)C3=C(C)[C@@H](OC(=O)[C@H](O)[C@@H](NC(=O)c4ccccc4)c4ccccc4)C[C@@](O)([C@@H](OC(=O)c4ccccc4)[C@H]21)C3(C)C | 2 | 
6 | C=CC(=O)O[C@@]12CO[C@@H]1C[C@H](O)[C@@]1(C)C(=O)[C@H](OC(C)=O)C3=C(C)[C@@H](OC(=O)[C@H](O)[C@@H](NC(=O)c4ccccc4)c4ccccc4)C[C@@](O)([C@@H](OC(=O)c4ccccc4)[C@H]21)C3(C)C | 6.03 | 
7 | CCCC(=O)O[C@@]12CO[C@@H]1C[C@H](O)[C@@]1(C)C(=O)[C@H](OC(C)=O)C3=C(C)[C@@H](OC(=O)[C@H](O)[C@@H](NC(=O)c4ccccc4)c4ccccc4)C[C@@](O)([C@@H](OC(=O)c4ccccc4)[C@H]21)C3(C)C | 1.1 | 
8 | CC(=O)O[C@H]1C(=O)[C@@]2(C)[C@H]([C@H](OC(=O)c3ccccc3)[C@]3(O)C[C@H](OC(=O)[C@H](O)[C@@H](NC(=O)c4ccccc4)c4ccccc4)C(C)=C1C3(C)C)[C@]1(OC(=O)C(C)C)CO[C@@H]1C[C@@H]2O | 5.01 | 
9 | C=C(C)C(=O)O[C@@]12CO[C@@H]1C[C@H](O)[C@@]1(C)C(=O)[C@H](OC(C)=O)C3=C(C)[C@@H](OC(=O)[C@H](O)[C@@H](NC(=O)c4ccccc4)c4ccccc4)C[C@@](O)([C@@H](OC(=O)c4ccccc4)[C@H]21)C3(C)C | 4.47 | 
10 | C/C=C/C(=O)O[C@@]12CO[C@@H]1C[C@H](O)[C@@]1(C)C(=O)[C@H](OC(C)=O)C3=C(C)[C@@H](OC(=O)[C@H](O)[C@@H](NC(=O)c4ccccc4)c4ccccc4)C[C@@](O)([C@@H](OC(=O)c4ccccc4)[C@H]21)C3(C)C | 2.29 | 
11 | CC(=O)O[C@H]1C(=O)[C@@]2(C)[C@H]([C@H](OC(=O)c3ccccc3)[C@]3(O)C[C@H](OC(=O)[C@H](O)[C@@H](NC(=O)c4ccccc4)c4ccccc4)C(C)=C1C3(C)C)[C@]1(OC(=O)C3CC3)CO[C@@H]1C[C@@H]2O | 1 | 
12 | CCCCC(=O)O[C@@]12CO[C@@H]1C[C@H](O)[C@@]1(C)C(=O)[C@H](OC(C)=O)C3=C(C)[C@@H](OC(=O)[C@H](O)[C@@H](NC(=O)c4ccccc4)c4ccccc4)C[C@@](O)([C@@H](OC(=O)c4ccccc4)[C@H]21)C3(C)C | 2 | 
13 | CC(=O)O[C@H]1C(=O)[C@@]2(C)[C@H]([C@H](OC(=O)c3ccccc3)[C@]3(O)C[C@H](OC(=O)[C@H](O)[C@@H](NC(=O)c4ccccc4)c4ccccc4)C(C)=C1C3(C)C)[C@]1(OC(=O)C3CCC3)CO[C@@H]1C[C@@H]2O | 1.51 | 
14 | CCCCCC(=O)O[C@@]12CO[C@@H]1C[C@H](O)[C@@]1(C)C(=O)[C@H](OC(C)=O)C3=C(C)[C@@H](OC(=O)[C@H](O)[C@@H](NC(=O)c4ccccc4)c4ccccc4)C[C@@](O)([C@@H](OC(=O)c4ccccc4)[C@H]21)C3(C)C | 6.03 | 
15 | CC(=O)O[C@H]1C(=O)[C@@]2(C)[C@H]([C@H](OC(=O)c3ccccc3)[C@]3(O)C[C@H](OC(=O)[C@H](O)[C@@H](NC(=O)c4ccccc4)c4ccccc4)C(C)=C1C3(C)C)[C@]1(OC(=O)C3CCCC3)CO[C@@H]1C[C@@H]2O | 2 | 
16 | CCOC(=O)O[C@@]12CO[C@@H]1C[C@H](O)[C@@]1(C)C(=O)[C@H](OC(C)=O)C3=C(C)[C@@H](OC(=O)[C@H](O)[C@@H](NC(=O)c4ccccc4)c4ccccc4)C[C@@](O)([C@@H](OC(=O)c4ccccc4)[C@H]21)C3(C)C | 1 | 
17 | CCCOC(=O)O[C@@]12CO[C@@H]1C[C@H](O)[C@@]1(C)C(=O)[C@H](OC(C)=O)C3=C(C)[C@@H](OC(=O)[C@H](O)[C@@H](NC(=O)c4ccccc4)c4ccccc4)C[C@@](O)([C@@H](OC(=O)c4ccccc4)[C@H]21)C3(C)C | 2.57 | 
18 | CC(=O)O[C@H]1C(=O)[C@@]2(C)[C@H]([C@H](OC(=O)c3ccccc3)[C@]3(O)C[C@H](OC(=O)[C@H](O)[C@@H](NC(=O)c4ccccc4)c4ccccc4)C(C)=C1C3(C)C)[C@]1(OC(=O)NC3CCC3)CO[C@@H]1C[C@@H]2O | 9.12 | 
19 | CC(=O)O[C@H]1C(=O)[C@@]2(C)[C@H]([C@H](OC(=O)c3ccccc3)[C@]3(O)C[C@H](OC(=O)[C@H](O)[C@@H](NC(=O)c4ccccc4)c4ccccc4)C(C)=C1C3(C)C)[C@]1(OC(=O)n3ccnc3)CO[C@@H]1C[C@@H]2O | 794 | 
20 | CCC(=O)O[C@H]1C(=O)[C@@]2(C)[C@H]([C@H](OC(=O)c3cccc(N=[N+]=[N-])c3)[C@]3(O)C[C@H](OC(=O)[C@H](O)[C@@H](CC(=O)OC(C)(C)C)C(F)(F)F)C(C)=C1C3(C)C)[C@]1(OC(C)=O)CO[C@@H]1C[C@@H]2O |  | 0.398
21 | CC(=O)O[C@@]12CO[C@@H]1C[C@H](O)[C@@]1(C)C(=O)[C@H](O)C3=C(C)[C@@H](OC(=O)[C@H](O)[C@@H](NC(=O)OC(C)(C)C)C(F)(F)F)C[C@@](O)([C@@H](OC(=O)c4cccc(N=[N+]=[N-])c4)[C@H]21)C3(C)C |  | 0.708
22 | CC(=O)O[C@@H]1C2=C(C)[C@@H](OC(=O)[C@H](O)[C@@H](NC(=O)OCC(C)(C)C)c3ccccc3)C[C@@](O)([C@@H](OC(=O)c3ccccc3)[C@@H]3[C@]4(OC(C)=O)CO[C@@H]4C[C@H](O)[C@@]3(C)[C@H]1O)C2(C)C |  | 0.00174
23 | CC(=O)O[C@@H]1C2=C(C)[C@@H](OC(=O)[C@H](O)[C@@H](NC(=O)OCc3ccccc3)c3ccccc3)C[C@@](O)([C@@H](OC(=O)c3ccccc3)[C@@H]3[C@]4(OC(C)=O)CO[C@@H]4C[C@H](O)[C@@]3(C)[C@H]1O)C2(C)C |  | 0.0135
24 | CC(=O)O[C@@H]1C2=C(C)[C@@H](OC(=O)[C@H](O)[C@@H](NC(=O)OCC(C)C)c3ccccc3)C[C@@](O)([C@@H](OC(=O)c3ccccc3)[C@@H]3[C@]4(OC(C)=O)CO[C@@H]4C[C@H](O)[C@@]3(C)[C@H]1O)C2(C)C |  | 0.00269
25 | CCOC(=O)N[C@@H](c1ccccc1)[C@@H](O)C(=O)O[C@H]1C[C@@]2(O)[C@@H](OC(=O)c3ccccc3)[C@@H]3[C@]4(OC(C)=O)CO[C@@H]4C[C@H](O)[C@@]3(C)[C@@H](O)[C@H](OC(C)=O)C(=C1C)C2(C)C |  | 0.00603
26 | COC(=O)O[C@@]12CO[C@@H]1C[C@H](O)[C@@]1(C)C(=O)[C@H](OC(C)=O)C3=C(C)[C@@H](OC(=O)[C@H](O)[C@@H](NC(=O)c4ccccc4)c4ccccc4)C[C@@](O)([C@@H](OC(=O)c4ccccc4)[C@H]21)C3(C)C [BMS-188797] | 2 | 
